{"source": "patent EP0979823B1", "about": "“NOVEL AMIDE COMPOUNDS AND DRUGS CONTAINING THE SAME” (Kowa Company Ltd., priority 1997, dated 1999)", "key": {"J774 cells": {"test_system": "J774 cells", "assay": "ACAT inhibitory activity (anti-foamation activity) in J774 cells", "format": "cell-based", "conditions": "for pIC50: J774 cells, 10 µg/ml 25-OH cholesterol, 18 hours, cholesterol ester = TC minus FC per protein, read-out: Enzyme (J774) IC50; for IC50 (HepG2) / IC50 (J774): ratio HepG2 / J774", "method": "(§1) J774 cells or HepG2 cells were spread on a 24-well plate. The cells were incubated in a 5% CO2 incubator at 37°C for 24 hours using DMEM in the case of the J774 cells and a MEM culture solution in the case of the HepG2 cells (both containing 10% fetal calf serum).\n(§2) The medium was removed, and the residue was washed twice with PBS, then extracted with 1.5 ml of a hexane:isopropanol (3:2) mixture, and concentrated to dryness. The extract was dissolved in 0.2 ml of isopropanol containing 10% Triton X-100. Total cholesterol (TC) and free cholesterol (FC) were measured using Cholesterol E Test Wako (supplied by Wako Pure Chemical Industries, Ltd.) and Free Cholesterol E Test Wako (supplied by Wako Pure Chemical Industries, Ltd.).\n(§3) The cell extract residue was solubilized in 0.25 ml of 2N NaOH at 37°C for 30 minutes, and the protein amount was measured using BCA Protein Assay Reagent (Pierce).\n(§4) The amount of cholesterol based on the protein was calculated from the difference between TC and FC, and an IC50 value was obtained from the calculation in contrast with the control."}, "HepG2 cells": {"test_system": "HepG2 cells", "assay": "ACAT inhibitory activity (anti-foamation activity) in HepG2 cells", "format": "cell-based", "conditions": "10 µg/ml 25-OH cholesterol, 18 hours, cholesterol ester = TC minus FC per protein, read-out: Enzyme (HepG2) IC50", "method": "as §1, §2, §3, §4"}, "[1]": {"target": "ACAT enzyme from the blood vessel wall (Oryctolagus cuniculus, UniProt G1SUQ0)", "sequence (G1SUQ0 entry or part of it)": "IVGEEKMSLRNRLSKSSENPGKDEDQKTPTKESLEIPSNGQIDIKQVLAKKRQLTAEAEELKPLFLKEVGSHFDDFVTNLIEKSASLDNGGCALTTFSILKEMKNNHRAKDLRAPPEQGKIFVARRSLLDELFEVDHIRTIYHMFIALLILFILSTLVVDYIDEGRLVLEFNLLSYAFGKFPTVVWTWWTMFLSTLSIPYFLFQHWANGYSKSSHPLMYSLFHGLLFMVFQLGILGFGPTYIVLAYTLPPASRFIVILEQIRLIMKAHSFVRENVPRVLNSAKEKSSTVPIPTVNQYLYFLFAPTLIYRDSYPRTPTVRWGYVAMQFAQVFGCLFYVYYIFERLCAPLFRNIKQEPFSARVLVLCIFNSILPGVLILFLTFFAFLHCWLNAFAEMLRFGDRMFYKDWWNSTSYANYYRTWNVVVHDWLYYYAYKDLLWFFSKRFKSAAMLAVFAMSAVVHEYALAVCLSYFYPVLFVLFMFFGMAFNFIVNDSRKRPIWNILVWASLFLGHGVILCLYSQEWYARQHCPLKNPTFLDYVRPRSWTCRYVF", "assay": "ACAT inhibitory activity, microsomal enzyme from the blood vessel wall (breast aorta)", "format": "biochemical, rabbit", "conditions": "for IC50 (B‡) / IC50 (A‡): ratio small intestine / blood vessel wall", "method": "A microsome was prepared from the breast aorta of a rabbit which had been fed with 1% cholesterol food for 8 weeks in a usual manner, and suspended in a 0.15 M phosphate buffer solution (pH 7.4) to form an enzyme solution. An enzyme solution derived from the small intestine was prepared from the small intestine of a rabbit that had eaten a normal food.\nTo this solution were added 10 µl of the enzyme solution, and the mixture was reacted at 37°C for 5 minutes (for 3 minutes in the case of the small intestine). Then, 3 ml of a chloroform/methanol (2/1) mixture and 0.5 ml of 0.04 N hydrochloric acid were added thereto to stop the reaction. The lipid was then extracted. The solvent layer was concentrated to dryness, and dissolved in hexane. The solution was spotted on a TLC plate (supplied by Merck Co.). The elution was conducted with a hexane:ether:acetic acid (75:25:1) mixture.\nThe radioactivity of the resulting cholesterol ester fraction was measured using BAS 2000 (supplied by Fuji Photo Film Co., Ltd.). An IC50 value was obtained from the calculation in contrast with a control containing only DMSO."}}, "note": "pIC50: −log10 of the molar value. Like-named read-outs stand apart in the source and are kept apart here.", "data": [{"smiles": "CCCCCCCCCN(CC(C)(C)C)C(=O)N[C@H]1CCCC[C@@H]1OC(=O)CCNC(=O)C1OC(C)(C)OCC1(C)C", "note": "(stereo partly drawn) [Control 3, N-(2,2,5,5-tetramethyl-1,3-dioxan-4-ylcarbonyl)-β-alanine 2 (S)-[N'-(2,2-dimethylpropyl)-N'-nonylureido]-1(S)-cyclohexyl ester, reference compound]", "values": [{"measurement": "pIC50", "setting": "J774 cells; Mus musculus", "result": 6.49}, {"measurement": "pIC50", "setting": "HepG2 cells; Homo sapiens", "result": 5.89}]}, {"smiles": "CC(C)c1cccc(C(C)C)c1NC(=O)CCCCCSc1nc2ccccc2o1", "note": "[Control 5, 6-(benzoxazol-2-ylthio)-N-(2,6-diisopropylphenyl)hexanamide, reference compound]", "values": [{"measurement": "pIC50", "setting": "J774 cells; Mus musculus", "result": 5.72}, {"measurement": "IC50 (HepG2) / IC50 (J774)", "setting": "J774 cells", "result": 0.8}, {"measurement": "pIC50", "setting": "HepG2 cells; Homo sapiens", "result": 5.80}]}, {"smiles": "Cc1cc(SC(C)C)c(NC(=O)CCCCCCCCSc2nc3cccc(C(F)(F)F)c3o2)c(SC(C)C)n1", "note": "[compound 1294, 9-(7-trifluoromethylbenzoxazol-2-ylthio)-N-[2,4-bis(isopropylthio)-6-methyl-3-pyridyl] nonanamide]", "values": [{"measurement": "pIC50", "setting": "J774 cells", "result": 8.38}, {"measurement": "IC50 (HepG2) / IC50 (J774)", "setting": "J774 cells", "result": 0.6}, {"measurement": "pIC50", "setting": "HepG2 cells", "result": 8.62}]}, {"smiles": "CCSc1cc(C)nc(SCC)c1NC(=O)CCCCCCSc1nc2c(C)c(Cl)cc(C(C)C)c2o1", "note": "[Compound No. 1282, 7-(5-chloro-7-isopropyl-4-methylbenzoxazol-2-ylthio)-N-[2,4-bis(ethylthio)-6-methyl-3-pyridyl]heptanamide]", "values": [{"measurement": "pIC50", "setting": "J774 cells; Mus musculus", "result": 8.49}, {"measurement": "IC50 (HepG2) / IC50 (J774)", "setting": "J774 cells", "result": 1.9}, {"measurement": "pIC50", "setting": "HepG2 cells; Homo sapiens", "result": 8.21}]}, {"smiles": "Cc1cc(SC(C)C)c(NC(=O)CCCCCCSc2nc3c(C)c(Cl)cc(C(C)C)c3o2)c(SC(C)C)n1", "note": "[Compound No. 1302, 7-(5-chloro-7-isopropyl-4-methylbenzoxazol-2-ylthio)-N-[2,4-bis(isopropylthio)-6-methyl-3-pyridyl]heptanamide]", "values": [{"measurement": "pIC50", "setting": "J774 cells; Mus musculus", "result": 8.68}, {"measurement": "IC50 (HepG2) / IC50 (J774)", "setting": "J774 cells", "result": 7.1}, {"measurement": "pIC50", "setting": "HepG2 cells; Homo sapiens", "result": 7.82}]}, {"smiles": "CC(C)c1cccc(C(C)C)c1NC(=O)C(C)(C)CCCOc1ccc2c(c1)C=C(c1nccn1C)C(CCc1ccc(F)cc1)O2", "note": "(centres unmarked) [Control 1, 5-[2-(2-(4-fluorophenyl)ethyl)-3-(1-methyl-1H-imidazol-2--yl)-2H-1-benzopyran-6-yl]oxy-2,2-dimethyl-N-(2,6-diisopropylphenyl)pentanamide, reference compound]", "values": [{"measurement": "pIC50", "setting": "[1]; A‡: the blood vessel wall, microsome from breast aorta of rabbit fed 1% cholesterol food for 8 weeks, 14C-Oleoyl-CoA 40 µM, 37°C, 5 minutes", "result": 6.35}, {"measurement": "IC50 (B‡) / IC50 (A‡)", "setting": "[1]", "result": 1.9}, {"measurement": "pIC50", "setting": "J774 cells; Mus musculus", "result": 6.25}, {"measurement": "IC50 (HepG2) / IC50 (J774)", "setting": "J774 cells", "result": 9.5}, {"measurement": "pIC50", "setting": "HepG2 cells; Homo sapiens", "result": 5.28}]}, {"smiles": "CSc1cc(C)nc(SC)c1NC(=O)CCCCCCCSc1nc2ccccc2s1", "note": "[Compound No. 797, 8-(benzthiazol-2-ylthio)-N-[2,4-bis(methylthio)-6-methyl-3-pyridyl)octanamide]", "values": [{"measurement": "pIC50", "setting": "J774 cells; Mus musculus", "result": 8.44}, {"measurement": "IC50 (HepG2) / IC50 (J774)", "setting": "J774 cells", "result": 8.1}, {"measurement": "pIC50", "setting": "HepG2 cells; Homo sapiens", "result": 7.54}]}, {"smiles": "CCSc1cc(C)nc(SCC)c1NC(=O)CSc1nc2ccccc2o1", "note": "[Compound No. 811, 2-(benzoxazol-2-ylthio)-N-[2,4-bis(ethylthio)-6-methyl-3-pyridyl]acetamide]", "values": [{"measurement": "pIC50", "setting": "J774 cells; Mus musculus", "result": 7.30}, {"measurement": "IC50 (HepG2) / IC50 (J774)", "setting": "J774 cells", "result": 36.0}, {"measurement": "pIC50", "setting": "HepG2 cells; Homo sapiens", "result": 5.74}]}, {"smiles": "CSc1cc(C)nc(SC)c1NC(=O)CCCCCCCSc1nc2cccc(C(F)(F)F)c2o1", "note": "[Compound No. 1253, 8-(7-trifluoromethylbenzoxazol-2-ylthio)-N-[2,4-bis(methylthio)-6-methyl-3-pyridyl]octanamide]", "values": [{"measurement": "pIC50", "setting": "J774 cells; Mus musculus", "result": 8.39}, {"measurement": "IC50 (HepG2) / IC50 (J774)", "setting": "J774 cells", "result": 1.1}, {"measurement": "pIC50", "setting": "HepG2 cells; Homo sapiens", "result": 8.36}]}, {"smiles": "Cc1cc(SC(C)C)c(NC(=O)CCCCCCSc2nc3cccc(C(F)(F)F)c3o2)c(SC(C)C)n1", "note": "[Compound No. 1292, 7-(7-trifluoromethylbenzoxazol-2-ylthio)-N-[2,4-bis(isopropylthio)-6-methyl-3-pyridyl] heptanamide]", "values": [{"measurement": "pIC50", "setting": "J774 cells", "result": 8.57}, {"measurement": "IC50 (HepG2) / IC50 (J774)", "setting": "J774 cells", "result": 11.1}, {"measurement": "pIC50", "setting": "HepG2 cells", "result": 7.52}]}, {"smiles": "CCSc1cc(C)nc(SCC)c1NC(=O)CCCCCCCCSc1nc2ccccc2o1", "note": "[Compound No. 818, 9-(benzoxazol-2-ylthio)-N-[2.4-bis(ethylthio)-6-methyl-3-pyridyl]nonanamide]", "values": [{"measurement": "pIC50", "setting": "J774 cells; Mus musculus", "result": 7.21}, {"measurement": "IC50 (HepG2) / IC50 (J774)", "setting": "J774 cells", "result": 1.0}, {"measurement": "pIC50", "setting": "HepG2 cells; Homo sapiens", "result": 7.20}]}, {"smiles": "CSc1cc(C)nc(SC)c1NC(=O)CCCCCSc1nc2ccccc2s1", "note": "[Compound No. 795, 6-(benzothiazol-2-ylthio)-N-[2,4-bis(methylthio)-6-methyl-3-pyridyl]hexanamide]", "values": [{"measurement": "pIC50", "setting": "J774 cells; Mus musculus", "result": 7.30}, {"measurement": "IC50 (HepG2) / IC50 (J774)", "setting": "J774 cells", "result": 7.0}, {"measurement": "pIC50", "setting": "HepG2 cells; Homo sapiens", "result": 6.46}]}, {"smiles": "CCCCCCCN(CCCCCSc1nc(-c2ccccc2)c(-c2ccccc2)[nH]1)c1nc2ccccc2o1", "note": "[Control 4, [5-(4,5-diphenyl-1H-imidazol-2-ylthio)pentyl]-N-heptyl-2-benzoxazolamie, reference compound]", "values": [{"measurement": "IC50 (B‡) / IC50 (A‡)", "setting": "[1]", "result": 1.4}, {"measurement": "pIC50", "setting": "J774 cells; Mus musculus", "result": 6.92}, {"measurement": "IC50 (HepG2) / IC50 (J774)", "setting": "J774 cells", "result": 6.3}, {"measurement": "pIC50", "setting": "HepG2 cells; Homo sapiens", "result": 6.12}]}, {"smiles": "CCSc1cc(C)nc(SCC)c1NC(=O)CSc1nc2ccccc2[nH]1", "note": "[Compound No. 831, 2-(benzimidazol-2-ylthio)-N-[2,4-bis(ethylthio)-6-methyl-3-pyridyl]acetamide]", "values": [{"measurement": "pIC50", "setting": "J774 cells; Mus musculus", "result": 7.24}, {"measurement": "IC50 (HepG2) / IC50 (J774)", "setting": "J774 cells", "result": 94.7}, {"measurement": "pIC50", "setting": "HepG2 cells; Homo sapiens", "result": 5.27}]}, {"smiles": "CCSc1cc(C)nc(SCC)c1NC(=O)CCCCCSc1nc2ccccc2o1", "note": "[Compound No. 815, 6-(benzoxazol-2-ylthio)-N-[2,4-bis(ethylthio)-6-methyl-3-pyridyl]hexanamide]", "values": [{"measurement": "pIC50", "setting": "J774 cells; Mus musculus", "result": 6.92}, {"measurement": "IC50 (HepG2) / IC50 (J774)", "setting": "J774 cells", "result": 21.7}, {"measurement": "pIC50", "setting": "HepG2 cells; Homo sapiens", "result": 5.59}]}]}
